The source made the active and inactive calls. The calls are words filed in the database; no cut-off is given here.
Columns and labels:
Type in all cases: cell-based
[1] = molecular target: N6-adenosine-methyltransferase catalytic subunit (Homo sapiens) (UniProt Q86U44); assay: Inhibition of METTL3 in human Lenvatinib-resistant Huh7/Len cells assessed as effect on TET1 mRNA expression level at 2 uM incubated for 72 hrs by RT-PCR analysis
[2] = molecular target: N6-adenosine-methyltransferase catalytic subunit (Homo sapiens) (UniProt Q86U44); assay: Inhibition of METTL3 in human Lenvatinib-resistant Huh7/Len cells assessed as effect on FGFR3 mRNA expression level at 2 uM incubated for 72 hrs by RT-PCR analysis
[3] = molecular target: N6-adenosine-methyltransferase catalytic subunit (Homo sapiens) (UniProt Q86U44); assay: Inhibition of METTL3 in human Lenvatinib-resistant Huh7/Len cells assessed as effect on DEK mRNA expression level at 2 uM incubated for 72 hrs by RT-PCR analysis
[4] = molecular target: N6-adenosine-methyltransferase catalytic subunit (Homo sapiens) (UniProt Q86U44); assay: Inhibition of METTL3 in human Lenvatinib-resistant Huh7/Len cells assessed as effect on UCK2 mRNA expression level at 2 uM incubated for 72 hrs by RT-PCR analysis
[5] = molecular target: N6-adenosine-methyltransferase catalytic subunit (Homo sapiens) (UniProt Q86U44); assay: Inhibition of METTL3 in human Lenvatinib-resistant Huh7/Len cells assessed as effect on HNF4A mRNA expression level at 2 uM incubated for 72 hrs by RT-PCR analysis
[6] = molecular target: N6-adenosine-methyltransferase catalytic subunit (Homo sapiens) (UniProt Q86U44); assay: Inhibition of METTL3 in human Lenvatinib-resistant Huh7/Len cells assessed as effect on LATS1 mRNA expression level at 2 uM incubated for 72 hrs by RT-PCR analysis
[7] = molecular target: N6-adenosine-methyltransferase catalytic subunit (Homo sapiens) (UniProt Q86U44); assay: Inhibition of METTL3 in human Lenvatinib-resistant Huh7/Len cells assessed as effect on IFFO1 mRNA expression level at 2 uM incubated for 72 hrs by RT-PCR analysis
[8] = molecular target: N6-adenosine-methyltransferase catalytic subunit (Homo sapiens) (UniProt Q86U44); assay: Inhibition of METTL3 in human Lenvatinib-resistant Huh7/Len cells assessed as effect on CTSL mRNA expression level at 2 uM incubated for 72 hrs by RT-PCR analysis
[9] = molecular target: N6-adenosine-methyltransferase catalytic subunit (Homo sapiens) (UniProt Q86U44); assay: Inhibition of METTL3 in human Lenvatinib-resistant Huh7/Len cells assessed as effect on MYC mRNA expression level at 2 uM incubated for 72 hrs by RT-PCR analysis
[10] = molecular target: N6-adenosine-methyltransferase catalytic subunit (Homo sapiens) (UniProt Q86U44); assay: Inhibition of METTL3 in human Lenvatinib-resistant Huh7/Len cells assessed as effect on MMP3 mRNA expression level at 2 uM incubated for 72 hrs by RT-PCR analysis
[11] = molecular target: N6-adenosine-methyltransferase catalytic subunit (Homo sapiens) (UniProt Q86U44); assay: Inhibition of METTL3 in human Lenvatinib-resistant Huh7/Len cells assessed as effect on ADAMTS9 mRNA expression level at 2 uM incubated for 72 hrs by RT-PCR analysis
[12] = molecular target: N6-adenosine-methyltransferase catalytic subunit (Homo sapiens) (UniProt Q86U44); assay: Inhibition of METTL3 in human Huh-7 cells assessed as down regulation of m6A RNA level at 2 uM incubated for 72 hrs by colorimetric analysis
[13] = molecular target: N6-adenosine-methyltransferase catalytic subunit (Homo sapiens) (UniProt Q86U44); assay: Inhibition of METTL3 in human Lenvatinib-resistant Huh7/Len cells assessed as effect on CRB3 mRNA expression level at 2 uM incubated for 72 hrs by RT-PCR analysis
[14] = molecular target: N6-adenosine-methyltransferase catalytic subunit (Homo sapiens) (UniProt Q86U44); assay: Inhibition of METTL3 in human Lenvatinib-resistant Huh7/Len cells assessed as effect on AKT1 mRNA expression level at 2 uM incubated for 72 hrs by RT-PCR analysis
[15] = molecular target: N6-adenosine-methyltransferase catalytic subunit (Homo sapiens) (UniProt Q86U44); assay: Inhibition of METTL3 in human Lenvatinib-resistant Huh7/Len cells assessed as effect on MMP13 mRNA expression level at 2 uM incubated for 72 hrs by RT-PCR analysis
[16] = molecular target: N6-adenosine-methyltransferase catalytic subunit (Homo sapiens) (UniProt Q86U44); assay: Inhibition of METTL3 in human Lenvatinib-resistant Huh7/Len cells assessed as effect on GATA3 mRNA expression level at 2 uM incubated for 72 hrs by RT-PCR analysis
[17] = molecular target: N6-adenosine-methyltransferase catalytic subunit (Homo sapiens) (UniProt Q86U44); assay: Inhibition of METTL3 in human Lenvatinib-resistant Huh7/Len cells assessed as effect on NPCL1 mRNA expression level at 2 uM incubated for 72 hrs by RT-PCR analysis
[18] = molecular target: N6-adenosine-methyltransferase catalytic subunit (Homo sapiens) (UniProt Q86U44); assay: Inhibition of METTL3 in human Lenvatinib-resistant Huh7/Len cells assessed as effect on TIBIM6 mRNA expression level at 2 uM incubated for 72 hrs by RT-PCR analysis
[19] = molecular target: N6-adenosine-methyltransferase catalytic subunit (Homo sapiens) (UniProt Q86U44); assay: Inhibition of METTL3 in human Lenvatinib-resistant Huh7/Len cells assessed as effect on EZH2 mRNA expression level at 2 uM incubated for 72 hrs by RT-PCR analysis
[20] = molecular target: N6-adenosine-methyltransferase catalytic subunit (Homo sapiens) (UniProt Q86U44); assay: Inhibition of METTL3 in human Lenvatinib-resistant Huh7/Len cells assessed as effect on IFIT2 mRNA expression level at 2 uM incubated for 72 hrs by RT-PCR analysis
[21] = molecular target: N6-adenosine-methyltransferase catalytic subunit (Homo sapiens) (UniProt Q86U44); assay: Inhibition of METTL3 in human Lenvatinib-resistant Huh7/Len cells assessed as effect on SLC7A11 mRNA expression level at 2 uM incubated for 72 hrs by RT-PCR analysis

Sequence of N6-adenosine-methyltransferase catalytic subunit (Homo sapiens) (Q86U44 whole entry): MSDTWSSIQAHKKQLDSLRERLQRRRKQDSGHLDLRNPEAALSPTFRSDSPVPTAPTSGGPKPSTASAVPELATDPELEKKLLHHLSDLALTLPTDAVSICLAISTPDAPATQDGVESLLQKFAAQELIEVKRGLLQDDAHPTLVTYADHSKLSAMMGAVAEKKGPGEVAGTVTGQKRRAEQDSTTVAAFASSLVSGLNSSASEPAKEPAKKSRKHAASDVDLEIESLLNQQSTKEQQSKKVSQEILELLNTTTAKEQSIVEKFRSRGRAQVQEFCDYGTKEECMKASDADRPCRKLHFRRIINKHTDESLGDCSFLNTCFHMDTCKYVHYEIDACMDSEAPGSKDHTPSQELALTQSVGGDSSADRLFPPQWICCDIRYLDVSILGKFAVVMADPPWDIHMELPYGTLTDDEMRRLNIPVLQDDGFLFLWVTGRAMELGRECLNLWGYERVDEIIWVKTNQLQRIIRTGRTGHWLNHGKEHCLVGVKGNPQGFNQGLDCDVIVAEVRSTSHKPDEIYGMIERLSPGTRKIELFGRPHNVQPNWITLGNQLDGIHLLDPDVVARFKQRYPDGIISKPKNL

- inhibition [1]: Active
- inhibition [2]: Active
- inhibition [3]: Active
- inhibition [4]: Active
- inhibition [5]: Active
- inhibition [6]: Active
- inhibition [7]: Active
- inhibition [8]: Active
- inhibition [9]: Active
- inhibition [10]: Active
- inhibition [11]: Active
- inhibition [12]: 18%
- inhibition [13]: Active
- inhibition [14]: Active
- inhibition [15]: Active
- inhibition [16]: Active
- inhibition [17]: Active
- inhibition [18]: Active
- inhibition [19]: Active
- inhibition [20]: Active
- inhibition [21]: Active
SMILES: O=C(NCc1cn2cc(CNCC3CCCCC3)ccc2n1)c1cc(=O)n2ccccc2n1

Reference: ChEMBL document CHEMBL5584314, “Identification of an m6A Natural Inhibitor, Lobeline, That Reverses Lenvatinib Resistance in Hepatocellular Tumors” (J Nat Prod, 2024)
